pIC50: −log10 of the molar value.
What was measured:
[1] = system: Trypanosoma brucei brucei; assay: microbe, parasite or virus in culture; type: functional, organism-based, STIB 795
Description: DNDI: Inhibition of Human African Trypanosomiasis (HAT), STIB 795, in vitro

[2] = DNDI: Cytotoxicity against human MRC-5 lung fibroblast cells.; conditions: IC50

Row | SMILES | pIC50 ([1]; Trypanosoma brucei, STIB 795) | pIC50 [2] | pIC50 [1]
1 | COc1cc(C(=O)N/N=C(/C)c2ccccc2O)cc(OC)c1OC | 5.35 | < 5.38 | 
2 | CCn1c2cccc(=O)c-2nc2ccccc21 | > 7.40 | < 4.68 | 
3 | C=CCNc1nc(N)c(/C(N)=N\C#N)s1 | 5.49 | < 4.38 | 
4 | Cc1ccc(C23CC4CC(CC(CN)(C4)C2)C3)cc1C | 6.04 | < 4.68 | 
5 | N#Cc1c(N)nc2[nH]nc(N)c2c1-c1ccccc1 | 5.52 | < 4.68 | 
6 | Cc1cc(NCCN2CCOCC2)c2ccc3ccccc3c2n1 | 5.31 | < 4.68 | 
7 | COc1ccc(C(CC(=O)c2ccncc2)SCc2ccco2)cc1 (configuration not stated) | 5.37 | < 4.38 | 
8 | COc1cccc(C2=NC(c3cccnc3)NC(c3ccccc3O)C2)c1 (configuration not stated) | 5.82 | < 4.68 | 
9 | Cc1cccc(C(=O)O/N=C(\N)c2ccncc2)c1 | 5.27 | < 4.38 | 
10 | CCN(CC)c1ccc(/C=C/C2=[N+](C)c3ccc(C(=O)OC)cc3C2(C)C)cc1 | 7.25 | 5.41 | 
11 | CN1CCN(Nc2ccnc3cc4ccccc4cc23)CC1 | 6.45 | 5.47 | 
12 | Cc1cc(C)[n+]2nc3n(-c4ccccc4)c(C)cc(C)c-3c2n1 | 5.35 | < 4.38 | 
13 | O=C(CC1(O)C(=O)Nc2ccc(I)cc21)c1cccs1 (configuration not stated) | 6.03 | < 4.38 | 
14 | CCCn1c(=N)n(CC(O)COc2ccc(Cl)cc2Cl)c2ccccc21 (configuration not stated) | 5.71 | 5.06 | 
15 | O=C(Nc1c2ccccc2nc2ccccc12)c1ccncc1 | 5.92 | 5.24 | 
16 | CC(C)(C)n1ncc(SC/C(=N\O)c2ccccc2)c(Cl)c1=O | 5.63 | < 4.38 | 
17 | CN(C)c1ccc(/C=C/c2cc[n+](C)c3ccccc23)cc1 | 7.42 | < 5.68 | 
18 | Cc1oc2c(O)c(O)ccc2c(=O)c1Oc1ccccc1F | 6.88 | < 4.38 | 
19 | COc1cc(OC)c2nc(C)c3c(c2c1)CNC3 | 5.60 | 5.15 | 

Row | SMILES | pIC50 ([1]; Trypanosoma brucei, STIB 795) | pIC50 [2] | pIC50 [1]
20 | CN(C)c1ccc(C2=Nc3cccc4cccc2c34)cc1 | 6.36 | < 4.38 | 
21 | CCC1CCCCN1S(=O)(=O)c1ccc(-c2ccno2)cc1OC (configuration not stated) | 5.56 | < 4.38 | 
22 | CCOC(=O)N/N=C1/c2ccccc2-c2nc3nonc3nc21 | 6.10 | < 4.68 | 
23 | C=CCN1C(=O)C(O)(CC(=O)c2ccco2)c2cc(Br)ccc21 (configuration not stated) | 6.32 | < 4.38 | 
24 | Cc1ccc(CN(C)C)c(O)c(=O)c1 | 5.25 | < 4.68 | 
25 | CCCCC(=O)NC(c1cccs1)c1cc(Cl)c2cccnc2c1O (configuration not stated) | 6.18 | < 4.38 | 
26 | O=C(NC(=S)NNC(=S)N/N=C/c1ccccc1)c1ccccc1 | 5.38 | < 4.68 | 
27 | CC1CCC2C(=O)N(c3ccc(Cc4ccncc4)cc3)C(=O)C2C1 (configuration not stated) | 5.27 | < 4.38 | 5.27
28 | Cc1ccccc1/N=N/C(=N\Nc1ccccc1)c1ccccc1 | 5.79 | < 4.38 | 
29 | Cc1nnc(N/N=C/c2cc(Cl)ccc2O)nc1O | 5.44 | 5.32 | 
30 | Cc1cccc(N2CCN(CCN)CC2)c1C | 5.28 | < 4.38 | 
31 | COC(=O)c1ccc(C2N=C(c3cccs3)CC(c3ccccc3O)N2)cc1 (configuration not stated) | 5.26 | < 4.38 | 
32 | CCOc1cc(CNCCc2cccc(Cl)c2)ccc1OC | 5.32 | < 4.68 | 
33 | Cc1cccc(C)c1C(OCC1CN(C(C)C)C(C)(C)O1)c1c(C)cccc1C (configuration not stated) | 5.31 | < 4.68 | 
34 | CC1(C)CC(NC2=C(Cl)C(=O)c3ccccc3C2=O)CC(C)(C)N1 | 5.75 | 5.29 | 
35 | N/C(Cc1cccs1)=N\OC(=O)C12CC3CC(CC(C3)C1)C2 | 6.90 | < 4.68 | 
36 | O=S(=O)(Nc1cccc2cccnc12)c1ccccc1O | 6.28 | < 4.98 | 
37 | COc1cc2nc(-c3cccnc3)nc(N3CCC[C@H]3CO)c2cc1OC | 5.27 | < 4.68 | 
38 | Oc1c(C(Nc2ccccn2)c2ccccc2Cl)ccc2cccnc12 (configuration not stated) | 5.03 | < 4.68 | 

— ChEMBL document CHEMBL2094269, “WEHI/Eskitis Trypanosoma b. brucei screening data”
